Measurements as given in ChEMBL document CHEMBL4152293, “Synthesis and biological evaluation of podophyllotoxin derivatives as selective antitumor agents” (Eur J Med Chem, 2018).
The source made the active and inactive calls. No cut-off for these calls is given here.

How the values were obtained:
L02 [1] = assay: Cytotoxicity against human L02 cells assessed as growth inhibition after 72 hrs by MTT assay; type: cell-based; conditions: L02, 72 h
[2] = Induction of apoptosis in human L02 cells assessed as viable cells at 10 nM after 72 hrs by annexin V-FITC/propidium iodide staining-based flow cytometric method (reference value: 96.3%); type: cell-based; conditions: read-out: Activity
L02 [3] = assay: Induction of morphological changes in human L02 cells at 10 to 30 nM after 72 hrs by DAPI staining-based fluorescence microscopic method; type: cell-based; conditions: l02, 72 h, 0.03 µM
[4] = Selectivity index, ratio of IC50 for human L02 cells to IC50 for human A549 cells; type: toxicity; conditions: L02 cells versus A549 cells, read-out: Ratio IC50
L02 [5] = assay: Induction of apoptosis in human L02 cells assessed as early apoptotic cells at 200 nM after 72 hrs by annexin V-FITC/propidium iodide staining-based flow cytometric method (reference value: 2%); type: cell-based; conditions: l02, 72 h, 0.2 µM
A549 [6] = assay: Cell cycle arrest in human A549 cells assessed as accumulation at G2/M phase at 10 nM after 72 hrs by propidium iodide staining-based flow cytometric method (reference value: 14.23%); type: functional
A549 [7] = assay: Induction of morphological changes in nucleus of human A549 cells at 10 to 30 nM after 72 hrs by DAPI staining-based fluorescence microscopic method; type: functional, cell-based
L02 [8] = assay: Cell cycle arrest in human L02 cells assessed as accumulation at G2/M phase at 10 nM after 72 hrs by propidium iodide staining-based flow cytometric method (reference value: 16.88%); type: ADME; conditions: l02, 72 h, 0.01 µM
A549 [9] = assay: Induction of apoptosis in human A549 cells assessed as early apoptotic cells at 100 nM after 72 hrs by annexin V-FITC/propidium iodide staining-based flow cytometric method (reference value: 3%); type: functional
L02 [10] = assay: Cell cycle arrest in human L02 cells assessed as accumulation at G2/M phase at 100 nM after 72 hrs by propidium iodide staining-based flow cytometric method (reference value: 16.88%); type: ADME; conditions: l02, 72 h, 0.1 µM
[11] = Induction of apoptosis in human L02 cells assessed as viable cells at 200 nM after 72 hrs by annexin V-FITC/propidium iodide staining-based flow cytometric method (reference value: 96.3%); type: cell-based; conditions: read-out: Activity
A549 [12] = assay: Induction of apoptosis in human A549 cells assessed as early apoptotic cells at 10 nM after 72 hrs by annexin V-FITC/propidium iodide staining-based flow cytometric method (reference value: 3%); type: functional
A549 [13] = assay: Cell cycle arrest in human A549 cells assessed as accumulation at G0/G1 phase at 10 nM after 72 hrs by propidium iodide staining-based flow cytometric method (reference value: 61.29%); type: functional
L02 [14] = assay: Cell cycle arrest in human L02 cells assessed as accumulation at S phase at 100 nM after 72 hrs by propidium iodide staining-based flow cytometric method (reference value: 25.78%); type: ADME; conditions: l02, 72 h, 0.1 µM
A549 [15] = assay: Induction of apoptosis in human A549 cells assessed as necrotic cells at 200 nM after 72 hrs by annexin V-FITC/propidium iodide staining-based flow cytometric method (reference value: 0.1%); type: functional
L02 [16] = assay: Induction of apoptosis in human L02 cells assessed as late apoptotic cells at 200 nM after 72 hrs by annexin V-FITC/propidium iodide staining-based flow cytometric method (reference value: 1.6%); type: cell-based; conditions: l02, 72 h, 0.2 µM
A549 [17] = assay: Induction of apoptosis in human A549 cells assessed as viable cells at 100 nM after 72 hrs by annexin V-FITC/propidium iodide staining-based flow cytometric method (reference value: 92.8%); type: functional; conditions: A549, 72 h, read-out: Activity
L02 [18] = assay: Induction of apoptosis in human L02 cells assessed as late apoptotic cells at 10 nM after 72 hrs by annexin V-FITC/propidium iodide staining-based flow cytometric method (reference value: 1.6%); type: cell-based; conditions: l02, 72 h, 0.01 µM
A549 [19] = assay: Cell cycle arrest in human A549 cells assessed as accumulation at G0/G1 phase at 100 nM after 72 hrs by propidium iodide staining-based flow cytometric method (reference value: 61.29%); type: functional
L02 [20] = assay: Cell cycle arrest in human L02 cells assessed as accumulation at G0/G1 phase at 10 nM after 72 hrs by propidium iodide staining-based flow cytometric method (reference value: 57.34%); type: ADME; conditions: l02, 72 h, 0.01 µM
HepG2 = assay: Cytotoxicity against human HepG2 cells assessed as growth inhibition after 72 hrs by MTT assay; type: functional, cell-based; conditions: HepG2, 72 h
L02 [21] = assay: Induction of apoptosis in human L02 cells assessed as necrotic cells at 200 nM after 72 hrs by annexin V-FITC/propidium iodide staining-based flow cytometric method (reference value: 0%); type: cell-based; conditions: l02, 72 h, 0.2 µM
L02 [22] = assay: Cell cycle arrest in human L02 cells assessed as accumulation at G0/G1 phase at 100 nM after 72 hrs by propidium iodide staining-based flow cytometric method (reference value: 57.34%); type: ADME; conditions: l02, 72 h, 0.1 µM
A549 [23] = assay: Induction of apoptosis in human A549 cells assessed as late apoptotic cells at 200 nM after 72 hrs by annexin V-FITC/propidium iodide staining-based flow cytometric method (reference value: 4.1%); type: functional
A549 [24] = assay: Induction of apoptosis in human A549 cells assessed as late apoptotic cells at 10 nM after 72 hrs by annexin V-FITC/propidium iodide staining-based flow cytometric method (reference value: 4.1%); type: functional
L02 [25] = assay: Cell cycle arrest in human L02 cells assessed as accumulation at G2/M phase at 5 nM after 72 hrs by propidium iodide staining-based flow cytometric method (reference value: 16.88%); type: ADME; conditions: l02, 72 h, 0.005 µM
A549 [26] = assay: Induction of apoptosis in human A549 cells assessed as late apoptotic cells at 100 nM after 72 hrs by annexin V-FITC/propidium iodide staining-based flow cytometric method (reference value: 4.1%); type: functional
A549 [27] = assay: Induction of apoptosis in human A549 cells assessed as viable cells at 200 nM after 72 hrs by annexin V-FITC/propidium iodide staining-based flow cytometric method (reference value: 92.8%); type: functional; conditions: A549, 72 h, read-out: Activity
A549 [28] = assay: Cell cycle arrest in human A549 cells assessed as accumulation at G2/M phase at 100 nM after 72 hrs by propidium iodide staining-based flow cytometric method (reference value: 14.23%); type: functional
A549 [29] = assay: Cytotoxicity against human A549 cells assessed as growth inhibition after 72 hrs by MTT assay; type: functional, cell-based; conditions: A549, 72 h
MCF7 = assay: Cytotoxicity against human MCF7 cells assessed as growth inhibition after 72 hrs by MTT assay; type: functional, cell-based; conditions: MCF7, 72 h
L02 [30] = assay: Induction of apoptosis in human L02 cells assessed as early apoptotic cells at 10 nM after 72 hrs by annexin V-FITC/propidium iodide staining-based flow cytometric method (reference value: 2%); type: cell-based; conditions: l02, 72 h, 0.01 µM
L02 [31] = assay: Induction of apoptosis in human L02 cells assessed as necrotic cells at 100 nM after 72 hrs by annexin V-FITC/propidium iodide staining-based flow cytometric method (reference value: 0%); type: cell-based; conditions: l02, 72 h, 0.1 µM
L02 [32] = assay: Cell cycle arrest in human L02 cells assessed as accumulation at S phase at 5 nM after 72 hrs by propidium iodide staining-based flow cytometric method (reference value: 25.78%); type: ADME; conditions: l02, 72 h, 0.005 µM
A549 [33] = assay: Cell cycle arrest in human A549 cells assessed as accumulation at S phase at 100 nM after 72 hrs by propidium iodide staining-based flow cytometric method (reference value: 24.48%); type: functional

COc1cc([C@@H]2c3cc4c(cc3[C@H](OC(=O)CN(C)C(=O)OC(C)(C)C)[C@H]3COC(=O)[C@H]23)OCO4)cc(OC)c1OC
IC50 (L02 [1]): 0.16 µM | viability at 72 h, 0.01 µM [2]: 94.1% | Activity (L02 [3]): Non-Toxic | selectivity ratio [4]: 16.9 | Activity (L02 [5]): 65% | Activity (A549 [6]): 13.54% | Activity (A549 [7]): Active | Activity (L02 [8]): 13.11% | Activity (A549 [9]): 84.6% | Activity (L02 [10]): 13.78% | viability at 72 h, 0.2 µM [11]: 31.8% | Activity (A549 [12]): 4.1% | Activity (A549 [13]): 59.2% | Activity (L02 [14]): 18.93% | Activity (A549 [15]): 0% | Activity (L02 [16]): 3.1% | viability at 0.1 µM (A549 [17]): 12.4% | Activity (L02 [18]): 1.6% | Activity (A549 [19]): 36.73% | Activity (L02 [20]): 62.3% | IC50 (HepG2): 0.0964 µM | Activity (L02 [21]): 0.1% | Activity (L02 [22]): 67.29% | Activity (A549 [23]): 2.1% | Activity (A549 [24]): 8.1% | Activity (L02 [25]): 13.77% | Activity (A549 [26]): 3% | viability at 0.2 µM (A549 [27]): 5.1% | Activity (A549 [28]): 17.14% | IC50 (A549 [29]): 0.0095 µM | IC50 (MCF7): 0.133 µM | Activity (L02 [30]): 4.3% | Activity (L02 [31]): 0% | Activity (L02 [32]): 24.04% | Activity (A549 [33]): 47.13%
